# Source: EP1134585B1, “Biosensor and method for the monitoring of herbicides” (CONSIGLIO NAZIONALE DELLE RICERCHE, priority 2000, dated 2001)
# What was measured:
# [1] = test system: PS II; conditions: PS II treated with CdCl2, refrigeration at 5°C, flow 0,2-2,0 ml/m
# Excerpt: To further increase the stability of the biomediator the usefulness of a system for the refrigeration of the solution containing herbicide forwarded into the measuring cell experimentally was observed.
# [2] = test system: thylakoids from Amaranthus retroflexus, Mutant; type: biochemical; conditions: herbicide concentration 10^-6 M
# [3] = test system: thylakoids from Amaranthus retroflexus, Wild-type; assay: Biosensor fluorescence response (Table D), wild-type biomediator; type: biochemical; conditions: herbicide concentration 10^-6 M
# [4] = test system: Ser223->Pro; conditions: code SP223; cited from earlier work
# [5] = test system: Ile229->Met~.Met; conditions: code M29; cited from earlier work
# [6] = test system: Gly192->Asp; conditions: cited from earlier work
# [7] = test system: Phe216→Ser ValM263→Phe; conditions: double mutant Phe216→Ser ValM263→Phe, code T3; cited from earlier work
# [8] = test system: Tyr222->Gly; conditions: code YG222; cited from earlier work
# [9] = test system: -Phe216→Ser; conditions: code T6; cited from earlier work
# [10] = test system: Thr226->Ala; conditions: cited from earlier work
# [11] = test system: Arg217→His Ser223→Ala; conditions: double mutant Arg217→His Ser223→Ala; cited from earlier work
# [12] = test system: GluM34->Lys; conditions: code M6; cited from earlier work
# [13] = test system: Tyr222->Phe; conditions: code T4; cited from earlier work
# [14] = test system: Ile229->Ser; conditions: cited from earlier work
# [15] = molecular target: D1 protein Ala250->Asn (Chlamydomonas reinhardtii, UniProt P07753, A250N); conditions: cited from earlier work
# [16] = molecular target: D1 protein Ala250->Asp (Chlamydomonas reinhardtii, UniProt P07753, A250D); conditions: cited from earlier work
# [17] = molecular target: D1 protein Ala250->Arg (Chlamydomonas reinhardtii, UniProt P07753, A250R); conditions: cited from earlier work
# [18] = molecular target: D1 protein A1a250->Tyr (Chlamydomonas reinhardtii, UniProt P07753, A250Y); conditions: cited from earlier work
# [19] = test system: PS II isolated from thermophilic cyanobacteria; conditions: immobilized PS II, Clark electrode (Koblizek et al.); cited from earlier work
# [20] = molecular target: D1 protein A1a250->His (Chlamydomonas reinhardtii, UniProt P07753, A250H); conditions: cited from earlier work
# [21] = molecular target: D1 protein Phe255->Tyr Ser264->Ala (Synechococcus elongatus, UniProt P04996, F255Y/S264A); conditions: code D5; cited from earlier work
# [22] = molecular target: D1 protein Ala250→Ser Phe255→IIe (Chlamydomonas reinhardtii, UniProt P07753, A250S/F255I); conditions: cited from earlier work
# [23] = molecular target: D1 protein A1a250→IIe (Chlamydomonas reinhardtii, UniProt P07753, A250I); conditions: cited from earlier work
# [24] = molecular target: D1 protein Phe255->Tyr (Chlamydomonas reinhardtii, UniProt P07753, F255Y); conditions: code Ar207+; cited from earlier work
# [25] = molecular target: D1 protein Phe211→Gly Met214→Gln (Chlamydomonas reinhardtii, UniProt P07753, F211G/M214Q); conditions: cited from earlier work
# [26] = test system: Phe216->Leu; conditions: cited from earlier work
# [27] = test system: Ile229->Thr; conditions: cited from earlier work
# [28] = test system: Gly228->Val; conditions: cited from earlier work
# [29] = test system: Gly228->Arg; conditions: cited from earlier work
# [30] = test system: Thr226->Met; conditions: cited from earlier work
# [31] = test system: I1e229→Met; conditions: R. capsulatus; cited from earlier work
# [32] = molecular target: D1 protein A1a251->Cys (Chlamydomonas reinhardtii, UniProt P07753, A251C); conditions: cited from earlier work
# [33] = test system: I1e228->Leu; conditions: cited from earlier work
# [34] = test system: PhC2,6―Pro; conditions: cited from earlier work
# [35] = test system: I1e229->Ala; conditions: cited from earlier work
# [36] = test system: D1 protein Val219->Ile Thr220->Ala Ser270->Tyr; conditions: code L5; cited from earlier work
# [37] = test system: D1 protein Ser264->Thr; conditions: Nicotiana tabacum (cell culture); cited from earlier work
# [38] = test system: Phe216->Thr; conditions: cited from earlier work
# [39] = test system: Ile229->Met; conditions: R. shaeroides; cited from earlier work
# [40] = test system: I1e229->Cys; conditions: cited from earlier work
# [41] = test system: Phe216→Val; conditions: cited from earlier work
# [42] = test system: monoclonal antibodies; conditions: ELISA (Schneider et al. 1994); cited from earlier work
# [43] = molecular target: D1 protein Lysa)238->Val (Synechocystis sp., UniProt P16033, K238V); conditions: Lysa)238->Val (Arg in other organisms); cited from earlier work
# [44] = test system: D1 protein Ser284->Gly; conditions: Chenopodium album; cited from earlier work
# [45] = molecular target: D1 protein Ser264->Ala (Chlamydomonas reinhardtii, UniProt P07753, S264A); conditions: codes MZ1 MZ3 MZ5; cited from earlier work
compound,measurement,setting,value
CCNc1nc(Cl)nc(NCC)n1 [Simazine],sensitivity (concentration),[1],lower than nanomolar
same,Area % inhibition Mutant,[2],14%
same,Area % inhibition Wild-type,[3],95%
c1cnc2c(c1)ccc1cccnc12 [o-Phenanthroline],Resistance R/S,[4],"o-Phenanthroline 6,25"
same,Resistance R/S,[5],o-Phenanthro me 11
same,Resistance R/S,[6],o-Phenanthroline 3
same,Resistance R/S,[7],o-Phenathroline 67
same,Resistance R/S,[8],o-Phenanthroline 26
same,Resistance R/S,[9],o-Phenanthroline 333
same,Supersensitivity R/S,[10],"line 0,03"
same,Resistance R/S,[11],o-Phenanthroline 5
same,Resistance R/S,[12],o-Phenanthroline >25
same,Resistance R/S,[13],o-Phenanthroline 10
same,Resistance R/S,[14],"o-Phenanthroline 1,3"
N#Cc1cc(Br)c(O)c(Br)c1 [Bromoxynil],sensitivity (concentration),[1],one order of magnitude higher
same,Supersensitivity R/S,[15],"Bromoxynil 0,2"
same,Supersensitivity R/S,[16],"Bromoxynil 0,16"
same,Supersensitivity R/S,[17],"Bromoxynil 0,3"
same,Supersensitivity R/S,[18],"Bromoxynil 0,4"
same,Area % inhibition Mutant,[2],95%
same,sensitivity,[19],10^-7 mol/l
same,Supersensitivity R/S,[20],"Bromoxynil 0,16"
same,Supersensitivity R/S,[21],"0,8"
same,Area % inhibition Wild-type,[3],97%
same,Supersensitivity R/S,[22],"0,2"
same,Supersensitivity R/S,[23],"Bromoxynil 0,3"
CNC(=O)Nc1nc2ccccc2s1 [Benzthiazuron],Supersensitivity R/S,[24],"0,3"
Cc1nnc(-c2ccccc2)c(=O)n1N [Metamitron],Supersensitivity R/S,[24],"Metamitron 0,3"
same,Supersensitivity R/S,[25],"0,4"
CNC(=O)N(C)c1nc2ccccc2s1 [Metabenzthiazuron],Supersensitivity R/S,[24],"zuron 0,3"
CCC(C)n1c(=O)[nH]c(C)c(Br)c1=O (centres unmarked) [Bromacil],Supersensitivity R/S,[24],"Bromacil 0,9"
CSc1nc(NC(C)C)nc(NC(C)C)n1 [Prometryn],Resistance R/S,[26],"Prometryn 1,4"
same,Resistance R/S,[27],"Prometryn 1,4"
same,Resistance R/S,[28],"Prometryn 1,4"
same,Resistance R/S,[29],"Prometryn 1,1"
same,Resistance R/S,[30],"Prometryn 1,1"
same,Resistance R/S,[10],"Prometryn 1,4"
same,Resistance R/S,[31],Prometryn 2
COC(=O)Nc1cccc(OC(=O)Nc2cccc(C)c2)c1 [Phenmedipham],Supersensitivity R/S,[32],"0,8"
CCNc1nc(NC(C)C)nc(SC)n1 [Ametryn],Area % inhibition Mutant,[2],21%
same,Resistance R/S,[26],"Ametryn 3,1"
same,Resistance R/S,[27],"Ametryn 1,9"
same,Resistance R/S,[28],"Ametryn 5,3"
same,Resistance R/S,[33],"Ametryn 2,5"
same,Resistance R/S,[34],"Ametryn 1,9"
same,Resistance R/S,[29],Ametryn 4
same,Resistance R/S,[30],"Ametryn 2,5"
same,Area % inhibition Wild-type,[3],99%
same,Resistance R/S,[10],Ametryn 4
same,Resistance R/S,[31],"Ametryn 5,3"
same,Resistance R/S,[13],Ametryn 330
COc1nc(NC(C)C)nc(NC(C)C)n1 [Prometon],Resistance R/S,[26],"Prometon 1,8"
same,Resistance R/S,[27],"Prometon 1,2"
same,Resistance R/S,[28],"Prometon 1,3"
same,Resistance R/S,[34],"Prometon 1,8"
same,Resistance R/S,[29],"Prometon 1,2"
same,Resistance R/S,[10],"Prometon 1,8"
same,Resistance R/S,[31],"Prometron 1,2"
same,Resistance R/S,[35],"Prometron 1,2"
CCC(C)c1cc([N+](=O)[O-])cc([N+](=O)[O-])c1O (centres unmarked) [Dinoseb],Supersensitivity R/S,[36],"Dinoseb 0,7"
same,Area % inhibition Mutant,[2],93%
same,Supersensitivity R/S,[21],"0,08"
same,Area % inhibition Wild-type,[3],99%
same,Supersensitivity R/S,[37],"Dinoseb 0,13"
CCNc1nc(Cl)nc(NC(C)C)n1 [Atrazine],Supersensitivity R/S,[32],"Atrazin 0,8"
same,sensitivity (concentration),[1],lower than nanomolar
same,Supersensitivity R/S,[15],"Atrazine 0,3"
same,Supersensitivity R/S,[16],"Atrazine 0,25"
same,Resistance R/S,[6],Atrazine 6
same,Supersensitivity R/S,[17],Atrazin 0.25
same,Supersensitivity R/S,[18],"Atrazine 0,4"
same,Resistance R/S,[38],"Atrazine 3,5"
same,Area % inhibition Mutant,[2],15%
same,Resistance R/S,[39],Atrazine >7
same,Resistance R/S,[26],"Atrazine 4,2"
same,Resistance R/S,[27],"Atrazine 3,7"
same,Resistance R/S,[28],"Atrazine 4,2"
same,Resistance R/S,[33],"Atrazine 3,5"
same,Resistance R/S,[40],Atrazine 2
same,Resistance R/S,[34],"Atrazine 1,9"
same,Resistance R/S,[29],"Atrazine 5,4"
same,Resistance R/S,[30],"Atrazine 3,1"
same,Area % inhibition Wild-type,[3],96%
same,Resistance R/S,[10],"Atrazin 3,1"
same,Supersensitivity R/S,[22],"Atrazine 0,5"
same,Resistance R/S,[31],"Atrazine 5,4"
same,Resistance R/S,[41],"Atrazine 1,8"
same,Resistance R/S,[13],Atrazine >600
same,Supersensitivity R/S,[23],"Atrazine 0,5"
same,Resistance R/S,[35],"Atrazine 1,8"
same,Resistance R/S,[14],"Atrazine 1,8"
same,sensitivity,[42],100 pM
same,Supersensitivity R/S,[43],"Atrazine 0,6"
CCNc1nc(NC(C)(C)C)nc(SC)n1 [Terbutryn],Resistance R/S,[4],Terbutryn >3000
same,Resistance R/S,[5],Terbutryn 120
same,Supersensitivity R/S,[16],"Terbutryn 0,4"
same,Resistance R/S,[6],Terbutryn 300
same,Resistance R/S,[7],Terbutryn 166
same,Resistance R/S,[28],"Terbutryn 1,5"
same,Resistance R/S,[8],Terbutryn >3000
same,Resistance R/S,[29],"Terbutryn 1,3"
same,Resistance R/S,[9],Terbutryn >2800
same,Resistance R/S,[30],"Terbutryn 1,7"
same,Resistance R/S,[10],"Terbutryn 1,7"
same,Supersensitivity R/S,[10],"Terbutryn 0,6(?)"
same,Supersensitivity R/S,[22],"0,9"
same,Resistance R/S,[31],"Terbutryn 1,9"
same,Resistance R/S,[11],Terbutryn 222
same,Resistance R/S,[12],Terbutryn > 125
same,Supersensitivity R/S,[23],"Terbutryn 0,5"
same,Supersensitivity R/S,[14],"Terbutryn 0,4"
CNc1nc(NC(C)C)nc(SC)n1 [Desmetryn],Area % inhibition Mutant,[2],10%
same,Area % inhibition Wild-type,[3],92%
same,Resistance R/S,[13],Desmetryn 50
CC(C)N1C(=O)c2ccccc2NS1(=O)=O [Bentazon],Supersensitivity R/S,[44],"Bentazon 0,5"
CC(C)Cc1cc([N+](=O)[O-])cc([N+](=O)[O-])c1O [i-Dinoseb],Supersensitivity R/S,[45],"i-Dinoseb 0,7"
